Experimental findings from patent US11446287B2, “Compounds and methods for EP300 or CBP modulation and indications therefor” (Opna Immuno-Oncology SA, priority 2019, dated 2022) are described below.

The IC50 is the concentration that inhibits the measured activity by half.

This assay has as its target T1, Recombinant human CBP containing the bromodomain (CBP-BD (1043-1159)) (Homo sapiens, UniProt Q92793).
T1 construct: Recombinant human CBP bromodomain (CBP-BD (1043-1159)); made in house; host or cells: E. coli BL21-CodonPlus (DE3), modified pET vector
In words: CBP Alphascreen binding assay. The note with it: read-out: CREBBP (CBP) IC50. The gist of the method:
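Buffer: 50 mM HEPES pH 7.5, 50 mM NaCl, 0.01% BSA, 0.01% Triton X-100, 2 mM DTT. The signal was normalised to plate controls and fitted with a four-parameter curve to give IC50.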
A general note: In Alpha technology, singlet oxygen from a donor bead excites a nearby acceptor bead.

T1 sequence (Q92793 1081-1197): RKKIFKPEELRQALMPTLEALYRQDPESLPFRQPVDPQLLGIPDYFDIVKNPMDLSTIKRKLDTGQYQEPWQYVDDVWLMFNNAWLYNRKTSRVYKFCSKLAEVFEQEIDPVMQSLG

On to `CCOc1cc(C(=O)O)c(F)cc1-c1cn(-c2ccccc2F)c2ncc(-c3c(C)noc3C)cc12` [P-0377, 4-(5-(3,5-dimethylisoxazol-4-yl)-1-(2-fluorophenyl)-1H-pyrrolo[2,3-b]pyridin-3-yl)-5-ethoxy-2-fluorobenzoic acid], for which the IC50 was in the range of 0.1 to 1000 nM. As for `Cc1noc(C)c1-c1cnc2c(c1)c(-c1ccc(C(=O)O)cc1OC(F)(F)F)cn2C1CCC1` [P-0378, 4-(1-cyclobutyl-5-(3,5-dimethylisoxazol-4-yl)-1H-pyrrolo[2,3-b]pyridin-3-yl)-3-(trifluoromethoxy)benzoic acid], the figure is 0.1 to 1000 nM; as for `Cc1noc(C)c1-c1cnc2c(c1)c(-c1ccc(C(=O)O)cc1OC1CC1)cn2C1CCOCC1` [P-0379, 3-cyclopropoxy-4-(5-(3,5-dimethylisoxazol-4-yl)-1-(tetrahydro-2H-pyran-4-yl)-1H-pyrrolo[2,3-b]pyridin-3-yl)benzoic acid], 0.1 to 1000 nM; as for `Cc1noc(C)c1-c1cnc2c(c1)c(-c1c(Cl)cc(C(=O)O)cc1OC(F)(F)F)cn2C(C1CCC1)C1CCC1` [P-0380, 3-chloro-4-(1-(dicyclobutylmethyl)-5-(3,5-dimethylisoxazol-4-yl)-1H-pyrrolo[2,3-b]pyridin-3-yl)-5-(trifluoromethoxy)benzoic acid], 0.1 to 1000 nM. As for `Cc1noc(C)c1-c1cnc2c(c1)c(-c1c(Cl)cc(C(=O)O)cc1OC1CC1)cn2C1CCOCC1` [P-0381, 3-chloro-5-cyclopropoxy-4-(5-(3,5-dimethylisoxazol-4-yl)-1-(tetrahydro-2H-pyran-4-yl)-1H-pyrrolo[2,3-b]pyridin-3-yl)benzoic acid], the figure is 0.1 to 1000 nM; as for `Cc1noc(C)c1-c1cnc2c(c1)c(-c1ccc(C(=O)O)cc1OC(F)(F)F)cn2C1CCCC1` [P-0382, 4-(1-cyclopentyl-5-(3,5-dimethylisoxazol-4-yl)-1H-pyrrolo[2,3-b]pyridin-3-yl)-3-(trifluoromethoxy)benzoic acid], 0.1 to 1000 nM; as for `Cc1noc(C)c1-c1cnc2c(c1)c(-c1ccc(C(=O)O)cc1OC(F)(F)F)cn2C1(C)CCOC1` (centres unmarked) [P-0383, 4-(5-(3,5-dimethylisoxazol-4-yl)-1-(3-methyltetrahydrofuran-3-yl)-1H-pyrrolo[2,3-b]pyridin-3-yl)-3-(trifluoromethoxy)benzoic acid], 0.1 to 1000 nM. As for `Cc1noc(C)c1-c1cnc2c(c1)c(-c1ccc(C(=O)O)cc1OC(F)(F)F)cn2-c1cnc(C2CC2)nc1` [P-0384, 4-(1-(2-cyclopropylpyrimidin-5-yl)-5-(3,5-dimethylisoxazol-4-yl)-1H-pyrrolo[2,3-b]pyridin-3-yl)-3-(trifluoromethoxy)benzoic acid], the figure is 0.1 to 1000 nM. As to `Cc1noc(C)c1-c1cnc2c(c1)c(-c1ccc(C(=O)O)cc1OC(F)(F)F)cn2C1(C)CCOCC1` [P-0385, 4-(5-(3,5-dimethylisoxazol-4-yl)-1-(4-methyltetrahydro-2H-pyran-4-yl)-1H-pyrrolo[2,3-b]pyridin-3-yl)-3-(trifluoromethoxy)benzoic acid], the 50% inhibitory concentration (IC50) lay in the range of 0.1 to 1000 nM. Regarding `Cc1noc(C)c1-c1cnc2c(c1)c(-c1c(Cl)cc(C(=O)O)cc1OC(F)(F)F)cn2-c1cnc(C2CC2)nc1` [P-0386, 3-chloro-4-(1-(2-cyclopropylpyrimidin-5-yl)-5-(3,5-dimethylisoxazol-4-yl)-1H-pyrrolo[2,3-b]pyridin-3-yl)-5-(trifluoromethoxy)benzoic acid], the IC50 fell in the range of 0.1 to 1000 nM. For `Cc1noc(C)c1-c1cnc2c(c1)c(-c1ccc(C(=O)O)cc1OCC(F)F)cn2-c1cnc(C2CC2)nc1` [P-0387, 4-(1-(2-cyclopropylpyrimidin-5-yl)-5-(3,5-dimethylisoxazol-4-yl)-1H-pyrrolo[2,3-b]pyridin-3-yl)-3-(2,2-difluoroethoxy)benzoic acid], the IC50 was in the range of 0.1 to 1000 nM.
